Source: US20110152267A1, “Compositions and Methods for Treating Hyperproliferative Disorders” (Texas Tech University System, priority 2009, published 2011)

Legend:
Type in all cases: cell-based, human
[1] = tested on: U-118 Glioblastoma cell line; experiment: DIMSCAN cytotoxicity, fenretinide + L-threo-sphinganines 3:1 (Example B5); parameters: key to CI (Combination Index): CI<0.9 synergy, 0.9-1.1 additive, >1.1 antagonistic; details: U-118 MG, 96 h
Protocol: (§1) Cytotoxicity Assay—Once again, cytotoxicity is determined using the DIMSCAN assay system (R. Proffitt et al., Cytometry 24, 204-213 (1996); T. Frgala et al., Mol Cancer Ther. 6:886-97, 2007). The system employs digital imaging microscopy to quantify viable cells, which selectively accumulate fluorescein diacetate to become brightly fluorescent. The system is capable of measuring cytotoxicity over a 4-5 log dynamic range by quenching the residual fluorescence of dead and dying cells with eosin Y and quantifying the total fluorescence of viable cells using digital thresholding. Measured fluorescence is directly proportionate to the number of viable cells. A comparison of the total fluorescence of a drug-treated cell population to the fluorescence of a similar number of untreated cells yields a survival fraction. In brief, 2000 to 10,000 cells/well (depending on size and growth rates) are replicate plated into 60 wells of a 96-well tissue culture plate in 0.1 mL of whole medium and allowed to attach overnight. Drug(s) are then added in 0.05 mL of whole medium to the final concentrations indicated. Drugs (fenretinide, and various chain length L-threo-sphinganines) were tested both as single agents and in a 3:1 ratio of fenretinide:sphinganine. C18-L-threo-sphinganine, or “safingol,” was also tested and results shown for reference. There are 12 wells treated per drug concentration. Twelve wells receive drug vehicle-only to the appropriate final concentration and serve as controls for the plate. Cells are incubated for 96 hours at 37° C. in ambient air with 5% CO2. Fluorescein diacetate is then added to each well in 0.05 mL media to a final concentration of 8 microgram/mL. Cells are incubated for a further 15 minutes at 37° C. and 0.03 mL of 0.5% eosin Y is added to each well. Total fluorescence of viable cells is then measured by digital imaging microscopy. Results were graphed as the ratio of the fluoresecence of drug-treated wells to non-drug treated control wells (i.e., Survival Fraction). All tests were performed at least twice. Representative results are shown.
(§2) The Combination Index (CI) is a term to describe mathematical modeling of the pharmacologic effects on cytotoxicity (cell death) of two drugs in combination based. Cytotoxic “synergy” is defined as a cell death affect which is greater than would be expected from a simple product of the single agent cytotoxicities alone (i.e. an “additive” effect). By Chou-Talalay analysis, a CI<0.9 on a Fraction Affected (“Fa”, i.e. fraction of cells killed) indicates synergy, with smaller numbers indicating greater synergy; a CI of 0.9-1.1 signifies an additive or near-additive effect; and a CI>1.1 means the drug combination is antagonistic.
Fenretinide and L-threo-sphinganines tested in human Glioblastoma (brain cancer) cell line, U-118.

[2] = tested on: A-549 lung adenocarcinoma cell line; experiment: DIMSCAN cytotoxicity, fenretinide + L-threo-sphinganines 3:1 (Example B13); details: 96 h
Protocol: as §1, §2
Fenretinide and L-threo-sphinganines tested in human lung adenocarcinoma (lung cancer) cell line, A-549.

[3] = tested on: PC-3 prostate adenocarcinoma cell line; experiment: DIMSCAN cytotoxicity, fenretinide + L-threo-sphinganines 3:1 (Example B17)
Protocol: as §1, §2
Fenretinide and L-threo-sphinganines tested in human prostate adenocarcinoma (prostate cancer) cell line, PC-3.

[4] = tested on: MCF-7 breast adenocarcinoma cell line; experiment: DIMSCAN cytotoxicity, fenretinide + L-threo-sphinganines 3:1 (Example B14); details: 96 h
Protocol: as §1, §2
(§3) Fenretinide and L-threo-sphinganines tested in human breast adenocarcinoma (breast cancer) cell lines, MCF-7 and MDA-MB-231.

[5] = tested on: MDA-MB-231 breast adenocarcinoma cell line; experiment: as above; details: MDA-MB-231, 20% O2, 96 h
Protocol: as §1, §2, §3

[6] = tested on: RPMI-8226 Multiple Myeloma cell line; experiment: DIMSCAN cytotoxicity, fenretinide + L-threo-sphinganines 3:1 (Example B2); details: 96 h
Protocol: as §1, §2
Fenretinide and L-threo-sphinganines tested in human Multiple Myeloma (a cancer of the blood and bone marrow) cell line, RPMI-8226.

[7] = tested on: A-2058 melanoma cell line; experiment: DIMSCAN cytotoxicity, fenretinide + L-threo-sphinganines 3:1 (Example B11); details: 96 h
Protocol: as §1, §2
Fenretinide and L-threo-sphinganines tested in human melanoma (skin cancer) cell line, A-2058.

[8] = 4-HPR 1.5 μM + L-threo-sphinganine 0.5 μM
[9] = 4-HPR 3 μM + L-threo-sphinganine 1 μM
[10] = 4-HPR 6 μM + L-threo-sphinganine 2 μM
[11] = 4-HPR 9 μM + L-threo-sphinganine 3 μM

CCCCCCCCC[C@H](O)[C@@H](N)CO [C12]
CI (Combination Index) [1, 8]: 1.5 | Fa (fraction affected) [1, 8]: 0.226 | CI (Combination Index) [1, 9]: 1.0 | Fa (fraction affected) [1, 9]: 0.671 | CI (Combination Index) [1, 10]: 0.3 | Fa (fraction affected) [1, 10]: 0.988 | CI (Combination Index) [1, 11]: 0.2 | Fa (fraction affected) [1, 11]: 0.996 | CI (Combination Index) [2, 8]: 2.5 | Fa (fraction affected) [2, 8]: 0.01 | CI (Combination Index) [2, 9]: 1.0 | Fa (fraction affected) [2, 9]: 0.010 | CI (Combination Index) [2, 10]: 1.0 | Fa (fraction affected) [2, 10]: 0.010 | CI (Combination Index) [2, 11]: 1.0 | Fa (fraction affected) [2, 11]: 0.020 | CI [3, 8]: 0.5 | Fa [3, 8]: 0.245 | CI [3, 9]: 0.8 | Fa [3, 9]: 0.328 | CI [3, 10]: 0.9 | Fa [3, 10]: 0.526 | CI [3, 11]: 0.8 | Fa [3, 11]: 0.721 | CI (Combination Index) [4, 8]: 1.0 | Fa (fraction affected) [4, 8]: 0.217 | CI (Combination Index) [4, 9]: 1.0 | Fa (fraction affected) [4, 9]: 0.642 | CI (Combination Index) [4, 10]: 0.9 | Fa (fraction affected) [4, 10]: 0.951 | CI (Combination Index) [4, 11]: 1.2 | Fa (fraction affected) [4, 11]: 0.975 | CI (Combination Index) [5, 8]: 1.5 | Fa (fraction affected) [5, 8]: 1E−07 | CI (Combination Index) [5, 9]: 0.9 | Fa (fraction affected) [5, 9]: 0.052 | CI (Combination Index) [5, 10]: 1.6 | Fa (fraction affected) [5, 10]: 0.272 | CI (Combination Index) [5, 11]: 2.0 | Fa (fraction affected) [5, 11]: 0.720 | CI (Combination Index) [6, 8]: 0.8 | Fa (fraction affected) [6, 8]: 0.6 | CI (Combination Index) [6, 9]: 1.0 | Fa (fraction affected) [6, 9]: 0.757 | CI (Combination Index) [6, 10]: 0.7 | Fa (fraction affected) [6, 10]: 0.96 | CI (Combination Index) [6, 11]: 0.5 | Fa (fraction affected) [6, 11]: 0.988 | CI (Combination Index) [7, 8]: 0.3 | Fa (fraction affected) [7, 8]: 0.244 | CI (Combination Index) [7, 9]: 0.6 | Fa (fraction affected) [7, 9]: 0.247 | CI (Combination Index) [7, 10]: 0.9 | Fa (fraction affected) [7, 10]: 0.518 | CI (Combination Index) [7, 11]: 1.0 | Fa (fraction affected) [7, 11]: 0.854

CCCCCCCCCCC[C@H](O)[C@@H](N)CO [C14]
CI (Combination Index) [1, 8]: 1.4 | Fa (fraction affected) [1, 8]: 0.318 | CI (Combination Index) [1, 9]: 1.2 | Fa (fraction affected) [1, 9]: 0.586 | CI (Combination Index) [1, 10]: 1.2 | Fa (fraction affected) [1, 10]: 0.814 | CI (Combination Index) [1, 11]: 0.4 | Fa (fraction affected) [1, 11]: 0.988 | CI (Combination Index) [2, 8]: 1 | Fa (fraction affected) [2, 8]: 0.01 | CI (Combination Index) [2, 9]: 1.0 | Fa (fraction affected) [2, 9]: 0.02 | CI (Combination Index) [2, 10]: 1.1 | Fa (fraction affected) [2, 10]: 0.072 | CI (Combination Index) [2, 11]: 0.5 | Fa (fraction affected) [2, 11]: 0.461 | CI [3, 8]: 0.7 | Fa [3, 8]: 0.192 | CI [3, 9]: 1.0 | Fa [3, 9]: 0.283 | CI [3, 10]: 1.3 | Fa [3, 10]: 0.426 | CI [3, 11]: 1.2 | Fa [3, 11]: 0.634 | CI (Combination Index) [6, 8]: 0.8 | Fa (fraction affected) [6, 8]: 0.606 | CI (Combination Index) [6, 9]: 1.1 | Fa (fraction affected) [6, 9]: 0.747 | CI (Combination Index) [6, 10]: 1.0 | Fa (fraction affected) [6, 10]: 0.93 | CI (Combination Index) [6, 11]: 0.4 | Fa (fraction affected) [6, 11]: 0.994 | CI (Combination Index) [7, 8]: 1.1 | Fa (fraction affected) [7, 8]: 0.045 | CI (Combination Index) [7, 9]: 1.2 | Fa (fraction affected) [7, 9]: 0.088 | CI (Combination Index) [7, 10]: 1.4 | Fa (fraction affected) [7, 10]: 0.193 | CI (Combination Index) [7, 11]: 1.3 | Fa (fraction affected) [7, 11]: 0.650
